Values quoted from earlier work in US20250241356A1, “ORAL COMPOSITION COMPRISING RECEPTOR MODULATOR” (NICOVENTURES TRADING LIMITED, priority 2022, published 2025).
Where two headings read alike, the source gives them in different places.

Experiments:
TRPM8 = TRPM8 (Mus musculus, UniProt Q8R4D5)
Sequence of TRPM8 (Q8R4D5 whole entry): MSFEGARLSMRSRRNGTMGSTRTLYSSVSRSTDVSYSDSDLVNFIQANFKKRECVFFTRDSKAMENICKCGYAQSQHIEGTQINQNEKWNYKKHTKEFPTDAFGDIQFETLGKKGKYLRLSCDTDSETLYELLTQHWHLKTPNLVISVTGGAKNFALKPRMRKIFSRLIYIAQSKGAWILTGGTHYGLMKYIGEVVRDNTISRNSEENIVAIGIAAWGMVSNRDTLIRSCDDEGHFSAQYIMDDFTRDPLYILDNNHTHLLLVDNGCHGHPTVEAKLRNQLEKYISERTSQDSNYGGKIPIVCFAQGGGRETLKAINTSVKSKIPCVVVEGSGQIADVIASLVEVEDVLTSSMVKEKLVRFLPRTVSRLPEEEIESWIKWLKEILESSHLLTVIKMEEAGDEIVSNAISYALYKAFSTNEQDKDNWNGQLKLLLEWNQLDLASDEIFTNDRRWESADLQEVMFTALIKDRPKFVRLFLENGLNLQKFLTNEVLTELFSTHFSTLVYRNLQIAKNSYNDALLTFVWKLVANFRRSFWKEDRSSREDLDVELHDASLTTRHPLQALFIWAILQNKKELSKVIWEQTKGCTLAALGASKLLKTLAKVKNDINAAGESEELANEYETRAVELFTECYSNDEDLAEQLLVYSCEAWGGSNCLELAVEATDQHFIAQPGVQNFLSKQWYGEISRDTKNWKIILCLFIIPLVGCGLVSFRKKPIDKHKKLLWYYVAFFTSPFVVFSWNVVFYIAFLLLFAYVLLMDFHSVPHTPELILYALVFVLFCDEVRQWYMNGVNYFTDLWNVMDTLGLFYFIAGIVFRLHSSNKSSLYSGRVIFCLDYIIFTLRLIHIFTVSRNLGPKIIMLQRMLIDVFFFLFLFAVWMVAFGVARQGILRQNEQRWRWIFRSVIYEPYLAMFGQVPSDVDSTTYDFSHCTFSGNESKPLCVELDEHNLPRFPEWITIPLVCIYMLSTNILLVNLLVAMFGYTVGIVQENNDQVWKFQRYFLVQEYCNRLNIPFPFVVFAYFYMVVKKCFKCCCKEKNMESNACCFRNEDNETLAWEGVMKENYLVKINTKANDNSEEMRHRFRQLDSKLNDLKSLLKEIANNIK

responses to icilin (TRPM8; extracellular [H+] increased from pH 7.3 to approximately pH 6)	responses to icilin (TRPM8; standard physiological solutions of pH 7.3)	solubility in water	solubility in fats and alcohols	chemical stability when isolated (converts via isomerization into trans-bixin (β-bixin))	SMILES
abolished	evokes [Ca2+] dependent responses	–	–	–	O=C1NC(c2cccc([N+](=O)[O-])c2)=CCN1c1ccccc1O [icilin, 1-(2-hydroxyphenyl)-4-(3-nitrophenyl)-3,6-dihydropyrimidin-2-one]
–	–	water-soluble	–	–	CC(/C=C/C=C(C)/C=C/C(=O)O)=C\C=C\C=C(C)\C=C\C=C(C)\C=C\C(=O)O (stereo in doubt) [norbixin, (2E,4E,6E,8E,10E,12E,14E,16E,18E)-4,8,13,17-tetramethylicosa-2,4,6,8,10,12,14,16,18-nonaenedioic acid]
–	–	insoluble in water	soluble in fats and alcohols	chemically unstable when isolated	COC(=O)/C=C/C(C)=C\C=C\C(C)=C\C=C\C=C(C)\C=C\C=C(C)\C=C\C(=O)O [bixin, (2E,4E,6E,8E,10E,12E,14E,16Z,18E)-20-methoxy-4,8,13,17-tetramethyl-20-oxoicosa-2,4,6,8,10,12,14,16,18-nonaenoic acid]
